Patent US20040204357A1, “Modulator of the megalin-mediated uptake of radiotherapeutics and/or radiodiagnostics into kidney cells and their use in therapy and diagnostics” (priority 2003, published 2004)
Like-named read-outs stand apart in the source and are kept apart here. Square brackets hold non-standard residues; d marks the D form. Peptide text beside a SMILES is read from it. * marks the point of attachment. X1 = NCCCC[C@H](NC(=O)[C@H](CS)NC(=O)[C@H](CCCCN)NC(=O)[C@@H](N)CNC(=O)C*)C(N)=O; NMeF = CN[C@@H](Cc1ccccc1)C(=O)O; hCys = N[C@@H](CCS)C(=O)O

Columns and labels:
[1] = Biodistribution of radiopharmaceuticals in RAP-deficient mice and control strain C57BL/6J, organs, urine and faeces counted for radioactivity; format: in vivo; conditions: mouse, total radioactivity, single intravenous injection 1-2 μCi/animal, 24 hours post injection, n = 3; for tissue uptake at 24 h: kidneys; for dose excreted at 24 h: urine, read-out: Urine (% ID)
Procedure: In order to investigate, whether megalin and cubilin play a role in the renal uptake of radiopharmaceuticals into cells of the proximal tubule, in-vivo experiments with RAP-deficient mice (Jax®Mice, strain B6.129S7-Lrpap1^tmlHer) were carried out.
RAP is mainly located in the endoplasmatic reticulum where it is responsible for the proper folding and escort of megalin to the plasma membrane (Willnow, 1995). RAP also binds to other members of the LDL-receptor family, such as the receptor LRP (LDL-receptor related protein) which is not expressed in the kidneys but mostly in the liver and the brain. In RAP-deficient mice the megalin expression in the kidneys is reduced by about 80% (Bim, 2000) and also the cubilin expression is reduced by some extend. These mice are therefore a representative model to study the megalin dependence of the uptake of radiopharmaceuticals. There exist also megalin knock-out mice which have the disadvantage that only 2% of the bred animals survive to adulthood due to several malformations especially of the forebrain (Leheste, 1999).
RAP-deficient mice (stock #002987) and mice of the control strain C57BL/6J (Jax®Mice, stock #000664) were treated with a single intravenous injection (1-2 μCi/animal) of the following radiopharmaceuticals:
After 24 hours post injection the animals were killed and the organs as well as the collected urine and faeces counted for radioactivity. […]

[2] = target: megalin (Homo sapiens, UniProt P98164); conditions: cited from earlier work
Sequence of megalin (P98164 26-4655, species assumed): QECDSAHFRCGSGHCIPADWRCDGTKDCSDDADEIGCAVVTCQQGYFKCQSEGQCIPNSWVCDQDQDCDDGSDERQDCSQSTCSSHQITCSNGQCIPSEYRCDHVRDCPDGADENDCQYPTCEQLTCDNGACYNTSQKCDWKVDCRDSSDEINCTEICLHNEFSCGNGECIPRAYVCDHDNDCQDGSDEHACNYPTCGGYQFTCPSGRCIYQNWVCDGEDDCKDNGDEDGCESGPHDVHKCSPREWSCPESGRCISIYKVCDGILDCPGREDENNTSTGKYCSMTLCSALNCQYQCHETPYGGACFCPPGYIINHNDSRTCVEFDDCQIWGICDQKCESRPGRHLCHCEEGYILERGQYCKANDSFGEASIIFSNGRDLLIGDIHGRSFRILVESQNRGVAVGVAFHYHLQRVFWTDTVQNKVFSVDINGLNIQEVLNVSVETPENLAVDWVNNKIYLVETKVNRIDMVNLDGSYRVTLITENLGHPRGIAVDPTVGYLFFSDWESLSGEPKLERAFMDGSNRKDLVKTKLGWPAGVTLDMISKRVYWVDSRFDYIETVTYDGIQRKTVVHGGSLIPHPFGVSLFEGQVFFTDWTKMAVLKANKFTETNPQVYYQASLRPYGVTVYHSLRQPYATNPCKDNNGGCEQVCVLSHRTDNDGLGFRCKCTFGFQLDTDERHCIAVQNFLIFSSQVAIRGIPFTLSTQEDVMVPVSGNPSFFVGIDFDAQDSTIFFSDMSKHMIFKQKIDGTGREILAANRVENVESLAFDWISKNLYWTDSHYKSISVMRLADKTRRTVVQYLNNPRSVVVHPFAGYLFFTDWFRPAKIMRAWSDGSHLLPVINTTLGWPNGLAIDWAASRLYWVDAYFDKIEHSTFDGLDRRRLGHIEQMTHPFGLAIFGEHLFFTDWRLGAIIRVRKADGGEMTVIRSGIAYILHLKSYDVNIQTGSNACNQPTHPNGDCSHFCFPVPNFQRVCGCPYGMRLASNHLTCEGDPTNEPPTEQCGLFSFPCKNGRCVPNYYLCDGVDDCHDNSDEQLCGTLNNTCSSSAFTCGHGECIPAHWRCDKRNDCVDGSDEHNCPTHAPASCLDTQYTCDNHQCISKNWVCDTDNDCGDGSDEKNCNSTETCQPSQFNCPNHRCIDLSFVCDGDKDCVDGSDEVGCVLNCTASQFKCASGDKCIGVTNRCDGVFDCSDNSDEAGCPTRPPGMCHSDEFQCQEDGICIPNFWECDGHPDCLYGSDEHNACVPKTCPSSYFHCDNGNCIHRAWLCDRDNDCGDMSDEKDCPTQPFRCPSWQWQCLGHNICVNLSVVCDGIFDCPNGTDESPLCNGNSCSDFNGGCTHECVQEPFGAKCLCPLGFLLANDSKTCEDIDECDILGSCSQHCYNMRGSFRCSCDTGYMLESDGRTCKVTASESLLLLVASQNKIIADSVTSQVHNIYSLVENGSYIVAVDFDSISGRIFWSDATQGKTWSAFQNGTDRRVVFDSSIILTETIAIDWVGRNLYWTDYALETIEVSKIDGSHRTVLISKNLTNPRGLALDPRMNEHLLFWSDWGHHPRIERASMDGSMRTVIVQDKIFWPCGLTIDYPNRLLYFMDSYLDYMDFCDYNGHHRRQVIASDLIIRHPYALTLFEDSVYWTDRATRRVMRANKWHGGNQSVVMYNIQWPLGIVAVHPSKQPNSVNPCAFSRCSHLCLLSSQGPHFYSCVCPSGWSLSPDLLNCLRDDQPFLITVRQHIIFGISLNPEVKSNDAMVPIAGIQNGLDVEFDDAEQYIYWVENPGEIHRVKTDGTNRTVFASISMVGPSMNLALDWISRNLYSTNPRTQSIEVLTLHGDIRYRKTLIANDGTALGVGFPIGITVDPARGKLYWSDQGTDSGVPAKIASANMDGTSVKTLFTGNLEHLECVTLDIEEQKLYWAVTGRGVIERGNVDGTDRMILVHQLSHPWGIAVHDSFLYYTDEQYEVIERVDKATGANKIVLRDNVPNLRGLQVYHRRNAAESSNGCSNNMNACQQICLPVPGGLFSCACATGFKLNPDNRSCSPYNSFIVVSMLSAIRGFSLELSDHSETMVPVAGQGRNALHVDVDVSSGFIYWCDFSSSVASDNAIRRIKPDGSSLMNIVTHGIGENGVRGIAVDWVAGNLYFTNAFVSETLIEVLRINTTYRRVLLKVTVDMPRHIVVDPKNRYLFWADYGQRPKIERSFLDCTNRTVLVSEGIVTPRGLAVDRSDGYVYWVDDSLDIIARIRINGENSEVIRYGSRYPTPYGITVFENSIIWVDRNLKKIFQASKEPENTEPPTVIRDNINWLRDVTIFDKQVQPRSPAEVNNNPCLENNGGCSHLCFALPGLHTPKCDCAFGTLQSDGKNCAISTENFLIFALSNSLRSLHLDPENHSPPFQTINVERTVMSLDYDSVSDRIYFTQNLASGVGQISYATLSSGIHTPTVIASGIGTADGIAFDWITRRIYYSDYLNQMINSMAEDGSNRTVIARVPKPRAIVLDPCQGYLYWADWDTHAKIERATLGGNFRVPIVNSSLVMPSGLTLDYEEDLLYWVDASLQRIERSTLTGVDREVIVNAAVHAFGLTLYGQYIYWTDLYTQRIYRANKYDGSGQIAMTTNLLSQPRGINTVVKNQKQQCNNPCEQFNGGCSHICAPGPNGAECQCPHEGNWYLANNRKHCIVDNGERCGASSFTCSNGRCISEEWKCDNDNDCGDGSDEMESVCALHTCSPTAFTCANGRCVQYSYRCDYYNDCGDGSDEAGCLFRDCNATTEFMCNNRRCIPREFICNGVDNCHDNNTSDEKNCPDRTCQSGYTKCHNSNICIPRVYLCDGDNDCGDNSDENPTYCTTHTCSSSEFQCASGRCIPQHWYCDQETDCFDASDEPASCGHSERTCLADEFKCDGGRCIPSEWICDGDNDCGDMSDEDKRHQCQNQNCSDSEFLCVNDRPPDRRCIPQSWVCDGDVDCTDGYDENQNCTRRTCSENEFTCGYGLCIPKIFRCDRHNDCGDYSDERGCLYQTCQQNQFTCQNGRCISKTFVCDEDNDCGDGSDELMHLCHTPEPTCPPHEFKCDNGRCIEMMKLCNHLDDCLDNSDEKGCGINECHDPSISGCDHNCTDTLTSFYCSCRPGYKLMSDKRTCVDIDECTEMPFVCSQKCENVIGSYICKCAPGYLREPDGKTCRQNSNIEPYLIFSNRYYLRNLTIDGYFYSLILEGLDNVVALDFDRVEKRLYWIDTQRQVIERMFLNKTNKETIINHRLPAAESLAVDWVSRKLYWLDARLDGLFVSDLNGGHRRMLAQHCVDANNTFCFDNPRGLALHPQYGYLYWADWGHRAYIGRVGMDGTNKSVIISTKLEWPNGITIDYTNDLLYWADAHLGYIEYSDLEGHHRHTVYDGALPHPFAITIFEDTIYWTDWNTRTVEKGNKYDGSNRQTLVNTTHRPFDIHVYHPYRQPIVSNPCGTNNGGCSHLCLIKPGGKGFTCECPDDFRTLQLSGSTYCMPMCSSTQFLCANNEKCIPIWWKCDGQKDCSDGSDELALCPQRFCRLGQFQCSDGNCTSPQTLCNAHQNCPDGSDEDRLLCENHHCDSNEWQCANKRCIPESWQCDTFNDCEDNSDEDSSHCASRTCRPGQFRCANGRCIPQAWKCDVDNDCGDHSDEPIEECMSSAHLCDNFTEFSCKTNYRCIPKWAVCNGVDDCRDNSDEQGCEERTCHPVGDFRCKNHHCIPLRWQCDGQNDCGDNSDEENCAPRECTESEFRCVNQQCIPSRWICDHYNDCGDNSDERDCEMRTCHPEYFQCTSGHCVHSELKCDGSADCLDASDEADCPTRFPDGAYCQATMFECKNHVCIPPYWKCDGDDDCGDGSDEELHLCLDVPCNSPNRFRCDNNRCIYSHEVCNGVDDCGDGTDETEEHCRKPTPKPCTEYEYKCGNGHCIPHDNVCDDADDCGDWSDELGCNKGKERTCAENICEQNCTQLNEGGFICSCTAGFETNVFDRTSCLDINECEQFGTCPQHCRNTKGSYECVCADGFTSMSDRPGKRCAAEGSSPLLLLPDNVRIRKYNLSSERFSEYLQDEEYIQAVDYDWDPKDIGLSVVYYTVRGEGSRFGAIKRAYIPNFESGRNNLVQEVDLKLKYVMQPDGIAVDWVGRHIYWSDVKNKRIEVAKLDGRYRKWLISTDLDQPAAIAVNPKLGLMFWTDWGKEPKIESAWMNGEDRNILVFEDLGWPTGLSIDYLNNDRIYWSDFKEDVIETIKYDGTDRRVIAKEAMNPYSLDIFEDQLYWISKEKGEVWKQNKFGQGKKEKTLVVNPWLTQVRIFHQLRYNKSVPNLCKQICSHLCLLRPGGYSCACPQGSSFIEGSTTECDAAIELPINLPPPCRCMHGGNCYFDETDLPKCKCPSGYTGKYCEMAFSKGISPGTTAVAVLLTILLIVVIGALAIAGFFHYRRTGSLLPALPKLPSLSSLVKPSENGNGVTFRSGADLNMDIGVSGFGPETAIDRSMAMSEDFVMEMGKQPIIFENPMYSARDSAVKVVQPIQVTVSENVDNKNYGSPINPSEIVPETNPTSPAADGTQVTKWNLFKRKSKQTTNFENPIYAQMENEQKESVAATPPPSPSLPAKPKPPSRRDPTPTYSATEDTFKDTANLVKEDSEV

[3] = B6.129S7-Lrpap1^tmlHer (RAP-deficient), RAP−/− (RAP-deficient) mice

tissue uptake at 24 h [1, 3] [%ID/g] | dose excreted at 24 h [1, 3] [%] | tissue uptake at 24 h ([1]; Control mice (C57BL/6J)) [%ID/g] | dose excreted at 24 h ([1]; Control mice (C57BL/6J)) [%] | Compound | Affinity of binding to megalin [2]
99.3 | 40.4 | 261 | 23.6 | CC(C)[C@@H]1NC(=O)[C@H](CCCCN)NC(=O)[C@@H](Cc2c[nH]c3ccccc23)NC(=O)[C@H](Cc2ccc(O)cc2)NC(=O)[C@H](Cc2ccccc2)N(C)C(=O)[C@H](CCSCC(=O)NC[C@H](N)C(=O)N[C@@H](CCCCN)C(=O)N[C@@H](CS)C(=O)N[C@@H](CCCCN)C(N)=O)NC1=O [Tc-99m-NeoTect ®, metal not drawn] (cyclo([hCys](X1)[NMeF]Y[dW]KV)) | –
– | – | – | – | RAP: 39 kDa chaperone-like protein that binds tightly to megalin | high affinity in the nanomolar range
